Results taken from patent US20260193236A1 (Protego Biopharma, Inc., priority 2022, published 2026).

These compounds were tested on IRE1-XBP1s (XBP1-RLuc splicing reporter in HEK293 T-REx cells) (assay: IRE1-XBP1s activation assay (XBP1-RLuc splicing reporter, HEK293 T-REx cells, luminescence relative to thapsigargin)). Conditions: 18 h, compound 10 μM, HEK293 T-REx XBP1-RLuc reporter cells, relative to thapsigargin (Tg) 500 nM, read-out: Activity (IRE1-XBP1s activation, luminescence as % signal relative to thapsigargin, % Tg).
Type: cell-based
Procedure: IRE1-XBP1s activation Assay: HEK293 T-REx cells stably expressing the XBP1-RLuc splicing reporter were treated with an IRE1-XBP1s activator provided herein (10 μM) in the presence or absence of the IRE1 active site inhibitor 4μ8C (32 μM) for 18 h. Luminescence was shown as the percentage signal relative to thapsigargin (Tg) (500 nM, 18 h).
Cc1ncc(OCCN(C)C(=O)Cn2cc(NC(=O)CCNc3ccc(F)nc3C)cn2)cn1 [Compound 241] gave an activation at 10 µM of less than 30%. Cc1nc(F)ccc1NCCC(=O)Nc1cnn(CC(=O)N(C)CCOc2ccn(C)n2)c1 [Compound 242] gave an activation at 10 µM of less than 30%. Compound Cc1ccc(OCCN(C)C(=O)Cn2cc(NC(=O)CCNc3ccc(F)nc3C)cn2)cn1 [Compound 243] has an activation at 10 µM of less than 30%. In the case of Cc1cnc(OCCN(C)C(=O)Cn2cc(NC(=O)CCNc3ccc(F)nc3C)cn2)nc1 [Compound 244], the activation at 10 µM was less than 30%. Cc1ccc2sc(OCCN(C)C(=O)Cn3cc(NC(=O)CCNc4ccc(F)nc4C)cn3)nc2c1 [Compound 246] was tested, and the activation at 10 µM was less than 30%. Work on Cc1nnc(OCCN(C)C(=O)Cn2cc(NC(=O)CCNc3ccc(F)nc3C)cn2)s1 [Compound 247] yielded an activation at 10 µM of less than 30%. Cc1ccc(OCCN(C)C(=O)Cn2cc(NC(=O)CCNC(=O)c3ncc(F)cn3)cn2)cc1 [Compound 248, 5-Fluoro-N-[3-[[1-[2-[methyl-[2-(4-methylphenoxy)ethyl]amino]-2-oxo-ethyl]pyrazol-4-yl]amino]-3-oxo-propyl]pyrimidine-2-carboxamide] showed an activation at 10 µM of less than 30%. With Cc1ccc(OCCN(C)C(=O)Cn2cc(NC(=O)CNC(=O)c3ncc(F)cn3)cn2)cc1 [Compound 249] the activation at 10 µM was less than 30%. Cc1ccc(OCCN(C)C(=O)Cn2cc(NC(=O)CCNc3c(F)cncc3C3CC3)cn2)cc1 [Compound 250, 3-((3-cyclopropyl-5-fluoropyridin-4-yl)amino)-N-(1-(2-(methyl(2-(p-tolyloxy)ethyl)amino)-2-oxoethyl)-1H-pyrazol-4-yl)propanamide] was tested, and the activation at 10 µM was greater than 50%. C=Cc1cncc(F)c1NCCC(=O)Nc1cnn(CC(=O)N(C)CCOc2ccc(C)cc2)c1 [Compound 251] gave an activation at 10 µM greater than 50%. COC(=O)Nc1cccc(NCCC(=O)Nc2cnn(CC(=O)N(C)CCOc3ccc(C)cc3)c2)n1 [Compound 253] showed an activation at 10 µM of less than 30%. Work on C=C(C)c1cncc(F)c1NCCC(=O)Nc1cnn(CC(=O)N(C)CCOc2ccc(C)cc2)c1 [Compound 254] yielded an activation at 10 µM greater than 50%. Work on Cc1ccc(OCCN(C)C(=O)Cn2cc(NC(=O)CCNc3ccc(O)nc3)cn2)cc1 [Compound 255] yielded an activation at 10 µM of less than 30%. Cc1ccc(OCC(C)(C)N(C)C(=O)Cn2cc(NC(=O)CCNc3ccnc(F)n3)cn2)cc1 [Compound 256] was tested, and the activation at 10 µM was greater than 50%. Cc1ccc(OCCN(C)C(=O)Cn2cc(NC(=O)CCNc3cncnc3C(C)C)cn2)cc1 [Compound 257] showed an activation at 10 µM of less than 30%. Cc1ccc(OCCN(C)C(=O)Cn2cc(NC(=O)CNC(=O)c3ccncc3)cn2)cc1 [Compound 259] showed an activation at 10 µM of less than 30%. Cc1ccc(OCCN(C)C(=O)Cn2cc(NC(=O)CCNc3ccnc(O)n3)cn2)cc1 [Compound 260, 3-((2-hydroxypyrimidin-4-yl)amino)-N-(1-(2-(methyl(2-(p-tolyloxy)ethyl)amino)-2-oxoethyl)-1H-pyrazol-4-yl)propanamide] was tested, and the activation at 10 µM was less than 30%. COC(=O)Nc1cccc(OCCC(=O)Nc2cnn(CC(=O)N(C)CCOc3ccc(C)cc3)c2)n1 [Compound 261, methyl (6-(3-((1-(2-(methyl(2-(p-tolyloxy)ethyl)amino)-2-oxoethyl)-1H-pyrazol-4-yl)amino)-3-oxopropoxy)pyridin-2-yl)carbamate] gave an activation at 10 µM of 30 to 50%. COC(=O)Nc1cc(OCCC(=O)Nc2cnn(CC(=O)N(C)CCOc3ccc(C)cc3)c2)ccn1 [Compound 262] gave an activation at 10 µM of 30 to 50%. In the case of Cc1cc(OCCN(C)C(=O)Cn2cc(NC(=O)CCNc3ccnc(F)n3)cn2)no1 [Compound 263], the activation at 10 µM was less than 30%. Work on Cc1ccc(OC[C@H](C)N(C)C(=O)Cn2cc(NC(=O)CCNc3ccnc(F)n3)cn2)cc1 [Compound 264] yielded an activation at 10 µM greater than 50%. Compound CN(CCOc1ccc(C(F)(F)F)cn1)C(=O)Cn1cc(NC(=O)CCNc2ccnc(O)n2)cn1 [Compound 265] has an activation at 10 µM of less than 30%. Cc1ccc(OC[C@@H](C)N(C)C(=O)Cn2cc(NC(=O)CCNc3ccnc(O)n3)cn2)cc1 [Compound 266] was tested, and the activation at 10 µM was less than 30%. With CN(CCOc1ccc(C(F)(F)F)cn1)C(=O)Cn1cc(NC(=O)CCNc2ccnc(F)n2)cn1 [Compound 267] the activation at 10 µM was 30 to 50%. Cc1ccc(OC[C@@H](C)N(C)C(=O)Cn2cc(NC(=O)CCNc3ccnc(F)n3)cn2)cc1 [Compound 268] was tested, and the activation at 10 µM was greater than 50%. In the case of CC(C)c1cncc(F)c1NCCC(=O)Nc1cnn(CC(=O)N(C)CCOc2ccc(C(F)(F)F)cn2)c1 [Compound 269], the activation at 10 µM was greater than 50%. For Cc1ccc(OC[C@@H](C)N(C)C(=O)Cn2cc(NC(=O)CCNc3nccc(F)n3)cn2)cc1 [Compound 270], the activation at 10 µM was 30 to 50%. Compound CN(CCOc1cc(C(F)F)on1)C(=O)Cn1cc(NC(=O)CCNc2nccc(F)n2)cn1 [Compound 271] has an activation at 10 µM of less than 30%. Compound CN(CCOc1cc(C(F)F)on1)C(=O)Cn1cc(NC(=O)CCNc2ccnc(F)n2)cn1 [Compound 272] has an activation at 10 µM of less than 30%. Cc1ccc(OCCN(C)C(=O)Cn2cc(NC(=O)CCOc3cccnc3NS(C)(=O)=O)cn2)cc1 [Compound 273, N-(1-(2-(methyl(2-(p-tolyloxy)ethyl)amino)-2-oxoethyl)-1H-pyrazol-4-yl)-3-((2-(methylsulfonamido)pyridin-3-yl)oxy)propanamide] was tested, and the activation at 10 µM was less than 30%. In the case of Cc1ccc(OCCN(C)C(=O)Cn2cc(NC(=O)COc3c(F)cncc3C(C)C)cn2)cc1 [Compound 274, 2-(4-(2-((3-fluoro-5-isopropylpyridin-4-yl)oxy)acetamido)-1H-pyrazol-1-yl)-N-methyl-N-(2-(p-tolyloxy)ethyl)acetamide], the activation at 10 µM was less than 30%. In the case of CC(C)c1cncc(F)c1OCCC(=O)Nc1cnn(CC(=O)N(C)CCOc2ccc(C(F)(F)F)nc2)c1 [Compound 277], the activation at 10 µM was greater than 50%. For CC(C)c1cncc(F)c1OCCC(=O)Nc1cnn(CC(=O)N(C)CCOc2cnc(C(F)(F)F)cn2)c1 [Compound 278], the activation at 10 µM was greater than 50%. For CC(C)c1cncc(F)c1OCCC(=O)Nc1cnn(CC(=O)N(C)CCOc2ccc(OC(F)(F)F)cn2)c1 [Compound 279], the activation at 10 µM was greater than 50%. Work on COc1cc(F)ccc1OCCN(C)C(=O)Cn1cc(NC(=O)CCNc2ncccn2)cn1 [Compound 282, N-(1-(2-((2-(4-fluoro-2-methoxyphenoxy)ethyl)(methyl)amino)-2-oxoethyl)-1H-pyrazol-4-yl)-3-(pyrimidin-2-ylamino)propanamide] yielded an activation at 10 µM of less than 30%. In the case of COc1cc(OCCN(C)C(=O)Cn2cc(NC(=O)CCNc3ncccn3)cn2)ccc1C [Compound 283], the activation at 10 µM was less than 30%. With COc1cc(C)ccc1OCCN(C)C(=O)Cn1cc(NC(=O)CCNc2ncccn2)cn1 [Compound 284] the activation at 10 µM was less than 30%. COc1cc(NS(=O)(=O)CC(=O)Nc2cnn(CC(=O)N(C)CCOc3ccc(C)cc3)c2)ccn1 [Compound 285, 2-(4-(2-(N-(2-methoxypyridin-4-yl)sulfamoyl)acetamido)-1H-pyrazol-1-yl)-N-methyl-N-(2-(p-tolyloxy)ethyl)acetamide] was tested, and the activation at 10 µM was less than 30%. Cc1ccc(OCCN(C)C(=O)Cn2cc(NC(=O)CCNc3ccc4c(n3)OCO4)cn2)cc1 [Compound 286, 3-([1,3]dioxolo[4,5-b]pyridin-5-ylamino)-N-(1-(2-(methyl (2-(p-tolyloxy)ethyl)amino)-2-oxoethyl)-1H-pyrazol-4-yl)propanamide] showed an activation at 10 µM greater than 50%. With Cc1ccc(OCCN(C)C(=O)Cn2cc(NC(=O)COc3ccc4ccccc4n3)cn2)cc1 [Compound 288] the activation at 10 µM was less than 30%. With Cc1ccc(OCCN(C)C(=O)Cn2cc(NC(=O)COc3cc4ccccn4n3)cn2)cc1 [Compound 289] the activation at 10 µM was greater than 50%. With Cc1ccc(OCCN(C)C(=O)Cn2cc(NC(=O)CCNc3ccc4c(c3)OC(F)(F)O4)cn2)cc1 [Compound 290] the activation at 10 µM was less than 30%. In the case of Cc1ccc(OCCN(C)C(=O)Cn2cc(NC(=O)CCNc3cc4c(cn3)OCO4)cn2)cc1 [Compound 291], the activation at 10 µM was 30 to 50%. Compound Cc1ccc(OCCN(C)C(=O)Cn2cc(NC(=O)C3(CNc4ccc(F)nc4C)CC3)cn2)cc1 [Compound 293, 1-(((6-fluoro-2-methylpyridin-3-yl)amino)methyl)-N-(1-(2-(methyl (2-(p-tolyloxy)ethyl)amino)-2-oxoethyl)-1H-pyrazol-4-yl)cyclopropane-1-carboxamide] has an activation at 10 µM of less than 30%. Compound Cc1ccc(OCCN(C)C(=O)Cn2cc(NC(=O)CCNc3ncc(-c4ncc(C)o4)cn3)cn2)cc1 [Compound 294, N-(1-(2-(methyl (2-(p-tolyloxy)ethyl)amino)-2-oxoethyl)-1H-pyrazol-4-yl)-3-((5-(5-methyloxazol-2-yl)pyrimidin-2-yl)amino)propanamide] has an activation at 10 µM of less than 30%. In the case of Cc1ccc(OCCN(C)C(=O)Cn2cc(NC(=O)CCNc3cnc4c(c3)OCO4)cn2)cc1 [Compound 295, 3-([1, 3]dioxolo[4,5-b]pyridin-6-ylamino)-N-(1-(2-(methyl (2-(p-tolyloxy)ethyl)amino)-2-oxoethyl)-1H-pyrazol-4-yl)propanamide], the activation at 10 µM was greater than 50%. C#CCCC1(CCC(=O)Nc2ncccc2OCCC(=O)Nc2cnn(CC(=O)N(C)CCOc3ccc(C)cc3)c2)N=N1 [Compound 296, 3-(3-but-3-ynyldiazirin-3-yl)-N-[3-[3-[[1-[2-[methyl-[2-(4-methylphenoxy)ethyl]amino]-2-oxo-ethyl]pyrazol-4-yl]amino]-3-oxo-propoxy]-2-pyridyl]propanamide] showed an activation at 10 µM of less than 30%.

Same assay, conditions: 18 h, read-out: Activity (IRE1-XBP1s activation, luminescence as % signal relative to thapsigargin, % Tg)
Cc1ccc(OCCN(C)C(=O)Cn2cc(NC(=O)C(C)(C)C(=O)Nc3ncc(F)cn3)cn2)cc1 [Compound 258, N1-(5-fluoropyrimidin-2-yl)-2,2-dimethyl-N3-(1-(2-(methyl(2-(p-tolyloxy)ethyl)amino)-2-oxoethyl)-1H-pyrazol-4-yl)malonamide] showed an activation at 10 µM of less than 30%. For Cc1ccc(OCCN(C)C(=O)Cn2cc(NC(=O)COc3cccc4cccnc34)cn2)cc1 [Compound 287, N-methyl-2-(4-(2-(quinolin-8-yloxy)acetamido)-1H-pyrazol-1-yl)-N-(2-(p-tolyloxy)ethyl)acetamide], the activation at 10 µM was less than 30%.
